8 compounds from paper PMC8037310, “Thrombin-Derived Peptides Potentiate the Activity of Gram-Positive-Specific Antibiotics against Gram-Negative Bacteria” (Molecules, 2021) can be followed below.

Where “and” joins values, the source holds several entries; their conditions need not be identical. Equal entries are not always repeated. Where two headings read alike, the source gives them in different places. Square brackets hold non-standard residues; d marks the D form. Peptide text beside a SMILES is read from it. A value given as a limit tells only on which side of the number the result lay.

For data set [1], the system named is E. coli BW25113. The class given is cell-based, Escherichia coli. The settings on record: for MICpep: synergist alone, E. coli BW25113, from checkerboard with rifampicin; for MSCpep: synergist concentration in the combination with rifampicin giving the lowest FICi; for MSCpep / MSCrif: E. coli BW25113; for FICi: BW25113, 20 h; for MSCrif: rifampicin concentration in the combination giving the lowest FICi. As to the method: (§1) All peptides were screened for antimicrobial activity against E. coli BW25113, E. coli ATCC25922, and E. coli W3110. A select group of the peptides was further tested against E. coli mcr-1, E. coli EQASmcr-1 (EQAS 2016 412016126), E. coli EQASmcr-2 (EQAS 2016 KP37), E. coli EQASmcr-3 (EQAS 2017 2013-SQ352), K. pneumoniae ATCC13883, P. aeruginosa ATCC27853, and A. baumannii ATCC17978. The antimicrobial assay was performed according to CLSI guidelines. Bacteria were plated out directly from their glycerol stocks on blood agar plates, incubated overnight at 37 °C, and then kept in the fridge. The blood agar plates were only used for 2 weeks and then replaced.
(§2) One colony from a blood agar plates was inoculated in Lysogeny Broth (LB) at 37 °C until a 0.5 optical density at 600 nm (OD600) was reached (compared to the sterility control of LB). The bacterial suspension was diluted in fresh LB to 2.0 × 10^6 CFU/mL. The serial dilutions were prepared in polypropylene microtiter plates: a stock of the test compounds was prepared with a 2x final concentration in LB. Moreover, 100 µL of the stock was added to the wells of the top row of which 50 µL was used for the serial dilution. The bottom row of each plate was used as the positive (50 µL of LB) and negative controls (100 µL of LB) (6 wells each). Furthermore, 50 µL of the 2.0 × 10^6 CFU/mL bacterial stock was added to each well except for the negative controls, adding up to a total volume of 100 µL per well. The plates were sealed with a breathable seal and incubated for 20 h at 37 °C and 600 rpm.
(§3) Two 96-well plates were required per compound. A serial dilution of the compound was performed on two plates from row A–G using with LB as medium. Row H was filled with 25 µL medium. On a separate plate a negative control (8 wells, 100 μL medium) was prepared. For all concentrations of antibiotic a specific stock was prepared. 25 µL medium was added to the 0 µg/mL antibiotic columns (plate I, column 1–3). Of each antibiotic stock 25 µL was added to three columns to obtain triplicates for every condition. Both plates contained 50 µL in each well to which 50 µL bacterial stock was added (see the protocol of the MIC assays) and the plates were sealed. After incubation for 20 h at 37 °C while shaking, the breathable seals were removed and the density of the bacterial suspensions measured at 600 nm (OD600) using a Tecan Spark plate reader. The OD600 values were transformed to a 2D gradient with the negative control as minimum and the positive control (wells G1, G2, and G3) as maximum in excel. The FICi was calculated using Equation (1) with a FICi ≤ 0.5 indicating synergy. FICi = (MSCa/MICa) + (MSCb/MICb),(1)
(§4) Calculation of the FICi: MSCa = concentration of the […] in combination with the antibiotic that results in the lowest FICi. MICa = MIC of the antibiotic without synergist (row G). MSCb = concentration of the synergist in combination with the antibiotic that results in the lowest FICi. MICb = MIC of the synergist itself (Column 1–3, plate I).

Data set [2] concerns defibrinated sheep blood (red blood cells). The data set can be described thus: Hemolysis assay. The class given is cell-based. Particulars: 200 µg/mL compound, 20 h incubation at 37 °C with defibrinated sheep blood, PBS 0.002% Tween20, absorbance 415 nm, relative to 0.1% Triton X-100; n=3 technical replicates. As to the method: Defibrinated sheep blood (Thermo Fisher Scientific) and a phosphate-buffered saline (PBS) buffer containing 0.002% Tween20 were used in this assay. The red blood cells were washed with buffer followed by centrifugation (400 g for 15 min at 4 °C). The red blood cells were then normalized to obtain a positive control read-out around 2.5 at 415 nm to stay in the linear range with the maximum sensitivity. A serial dilution of the compounds (200–1.56 µg/mL, 75 µL) was prepared in a 96-well plate. Each plate contained a positive control (0.1% Triton X-100 final concentration, 75 µL) and the negative control (buffer, 75 µL). After addition of normalized blood cells (75 µL), the plates were incubated for 20 h at 37 °C at 500 rpm. The plates were centrifuged (800× g for 5 min at room temperature). For the next step flat-bottom polystyrene plates were prepared with 100 µL buffer in each well. Aliquots of 25 µL supernatant from the centrifuged plates were then transferred to their respective wells in the flat-bottom plate. Absorbance values where measured at 415 nm and corrected for background (negative control) and transformed to a percentage hemolysis relative to the positive control.

The test system of data set [3] is E. coli BW25113. The data set can be described thus: Checkerboard assay with erythromycin. Particulars: for MSCery: erythromycin concentration in the combination with the synergist giving the lowest FICi, E. coli BW25113; for MIC of the peptide (MICpep): synergist alone, from checkerboard with erythromycin; for MIC of the peptide (MICpep) / MSCpeptide, minimum synergistic concentration: E. coli BW25113, LB, 20 h 37 °C; for MSCpeptide, minimum synergistic concentration: synergist concentration in the combination with erythromycin giving the lowest FICi, OD600. The class given is cell-based, Escherichia coli. As to the method: as §1, §2, §3, §4

In the case of `CC[C@H](C)[C@H](NC(=O)[C@@H](NC(=O)[C@H](CCCCN)NC(=O)[C@H](CCC(N)=O)NC(=O)[C@@H](NC(=O)[C@H](Cc1c[nH]c2ccccc12)NC(=O)[C@H](CCCCN)NC(=O)[C@H](CCCCN)NC(=O)[C@H](CC(C)C)NC(=O)[C@H](CCCNC(=N)N)NC(=O)[C@H](Cc1ccccc1)NC(=O)[C@@H](NC(C)=O)C(C)C)[C@@H](C)CC)C(C)C)C(N)=O` [peptide 7] (Ac-VFRLKKWIQKVI-NH2), in data set [1], the MICpep stood at 50 µg/mL and the MSCpep came out at 12.5 µg/mL. Further, the Hemolysis in data set [2] is 4.6% and 5%. Besides, in data set [3], the MSCery turned out to be 3.125 µg/mL; the “MIC of the peptide (MICpep)” value came to 50 µg/mL; the “MSCpeptide, minimum synergistic concentration” value is reported as 12.5 µg/mL.
Regarding `CC[C@H](C)[C@H](NC(=O)[C@@H](NC(=O)[C@H](CCCCN)NC(=O)[C@H](CCC(N)=O)NC(=O)[C@@H](NC(=O)[C@H](Cc1c[nH]c2ccccc12)NC(=O)[C@H](CCCCN)NC(=O)[C@H](CCCCN)NC(=O)[C@H](CC(C)C)NC(=O)[C@H](CCCNC(=N)N)NC(=O)[C@H](Cc1ccccc1)NC(=O)[C@H](C)N)[C@@H](C)CC)C(C)C)C(N)=O` [peptide 8] (H-AFRLKKWIQKVI-NH2), in data set [1], the FICi is 0.1406, the MICpep stood at 12.5 µg/mL and the MSCpep worked out at 1.563 µg/mL. Further, the Hemolysis in data set [2] is 1.5% and 2%. In data set [3], the MSCery worked out at 12.5 µg/mL; the “MIC of the peptide (MICpep)” value turned out to be 12.5 µg/mL; the “MSCpeptide, minimum synergistic concentration” value is 1.563 µg/mL.
`CC[C@H](C)[C@H](NC(=O)[C@@H](NC(=O)[C@H](CCCCN)NC(=O)[C@H](CCC(N)=O)NC(=O)[C@@H](NC(=O)[C@H](Cc1c[nH]c2ccccc12)NC(=O)[C@H](C)NC(=O)[C@H](CCCCN)NC(=O)[C@H](CC(C)C)NC(=O)[C@H](CCCNC(=N)N)NC(=O)[C@H](Cc1ccccc1)NC(=O)[C@@H](N)C(C)C)[C@@H](C)CC)C(C)C)C(N)=O` [compound 13] (H-VFRLKAWIQKVI-NH2): in data set [1], the FICi amounted to 0.5000, the MSCrif was determined as 2 µg/mL, the MICpep is 25 µg/mL and the MSCpep amounted to 6.25 µg/mL. For the same compound, the Hemolysis in data set [2] worked out at 19.0%. In data set [3], the MSCery is 3.125 µg/mL; the “MIC of the peptide (MICpep)” value was determined as 25 µg/mL; the “MSCpeptide, minimum synergistic concentration” value amounted to 12.5 µg/mL. In addition, the FICi in data set [3] (with erythromycin vs E. coli BW25113, synergy defined as FICi ≤ 0.5) is reported as greater than 0.5.
As for `CC[C@@H](C)[C@@H](N)C(=O)N[C@@H](C(=O)N[C@H](CCCCN)C(=O)N[C@H](CCC(N)=O)C(=O)N[C@@H](C(=O)N[C@H](Cc1c[nH]c2ccccc12)C(=O)N[C@H](CCCCN)C(=O)N[C@H](CCCCN)C(=O)N[C@H](CC(C)C)C(=O)N[C@H](CCCNC(=N)N)C(=O)N[C@H](Cc1ccccc1)C(=O)N[C@@H](C(N)=O)C(C)C)[C@H](C)CC)C(C)C` [peptide 22] (H-[dI][dV][dK][dQ][dI][dW][dK][dK][dL][dR][dF][dV]-NH2), in data set [1], the FICi is on record as 0.1406, the MSCrif stood at 0.25 µg/mL, the MICpep amounted to 50 µg/mL and the MSCpep was determined as 6.25 µg/mL. Further, in data set [2], the Hemolysis is 3.2% and 3%. In addition, in data set [3], the MSCery was 6.25 µg/mL; the “MIC of the peptide (MICpep)” value is 100 µg/mL; the “MSCpeptide, minimum synergistic concentration” value came to 6.25 µg/mL.
On to `CC[C@H](C)[C@H](NC(=O)[C@@H](NC(=O)[C@H](CCCCN)NC(=O)[C@H](C)NC(=O)[C@@H](NC(=O)[C@H](Cc1c[nH]c2ccccc12)NC(=O)[C@H](CCCCN)NC(=O)[C@H](CCCCN)NC(=O)[C@H](CC(C)C)NC(=O)[C@H](CCCNC(=N)N)NC(=O)[C@H](Cc1ccccc1)NC(=O)[C@@H](N)C(C)C)[C@@H](C)CC)C(C)C)C(N)=O` [compound 16] (H-VFRLKKWIAKVI-NH2), for which, in data set [1], the FICi is 0.2656, the MICpep worked out at 25 µg/mL and the MSCpep came to 6.25 µg/mL. Also, the Hemolysis in data set [2] is 3.5% and 4%. Also, in data set [3], the MSCery was found to be 12.5 µg/mL; the “MIC of the peptide (MICpep)” value is listed as 25 µg/mL; the “MSCpeptide, minimum synergistic concentration” value is on record as 3.125 µg/mL.
Take `CC[C@H](C)[C@H](NC(=O)[C@@H](NC(=O)[C@H](CCCCN)NC(=O)[C@H](CCC(N)=O)NC(=O)[C@@H](NC(=O)[C@H](Cc1c[nH]c2ccccc12)NC(=O)[C@H](CCCCN)NC(=O)[C@H](CCCCN)NC(=O)[C@H](CC(C)C)NC(=O)[C@H](CCCNC(=N)N)NC(=O)[C@H](Cc1ccccc1)NC(=O)[C@@H](N)C(C)C)[C@@H](C)CC)C(C)C)C(=O)O` [peptide 1] (H-VFRLKKWIQKVI-OH): in data set [1], the MSCrif was 0.25 µg/mL, the MICpep was found to be 200 µg/mL and the MSCpep was 12.5 µg/mL. Also, the Hemolysis in data set [2] was 0.1% and 0%. For the same compound, in data set [3], the MSCery came to 12.5 µg/mL; the “MIC of the peptide (MICpep)” value is 200 µg/mL; the “MSCpeptide, minimum synergistic concentration” value is given as 25 µg/mL.
Take `CC[C@H](C)[C@H](NC(=O)[C@@H](NC(=O)[C@H](CCCCN)NC(=O)[C@H](CCC(N)=O)NC(=O)[C@@H](NC(=O)[C@H](Cc1c[nH]c2ccccc12)NC(=O)[C@H](CCCCN)NC(=O)[C@H](CCCCN)NC(=O)[C@H](CC(C)C)NC(=O)[C@H](CCCNC(=N)N)NC(=O)[C@H](Cc1ccccc1)NC(=O)[C@@H](NC(C)=O)C(C)C)[C@@H](C)CC)C(C)C)C(=O)O` [peptide 5] (Ac-VFRLKKWIQKVI-OH): in data set [1], the MSCrif came out at 0.25 µg/mL, the MICpep is greater than 200 µg/mL and the MSCpep was 50 µg/mL. The Hemolysis in data set [2] was 0.2% and 0%. In addition, in data set [3], the MSCery was 6.25 µg/mL; the “MIC of the peptide (MICpep)” value is given as greater than 200 µg/mL; the “MSCpeptide, minimum synergistic concentration” value stood at 50 µg/mL.
Take `CC[C@H](C)[C@H](NC(=O)[C@@H](NC(=O)[C@H](CCCCN)NC(=O)[C@H](CCC(N)=O)NC(=O)[C@H](C)NC(=O)[C@H](Cc1c[nH]c2ccccc12)NC(=O)[C@H](CCCCN)NC(=O)[C@H](CCCCN)NC(=O)[C@H](CC(C)C)NC(=O)[C@H](CCCNC(=N)N)NC(=O)[C@H](Cc1ccccc1)NC(=O)[C@@H](N)C(C)C)C(C)C)C(N)=O` [compound 15] (H-VFRLKKWAQKVI-NH2): in data set [1], the FICi was 0.0938, the MSCrif came out at 0.25 µg/mL, the MICpep is 100 µg/mL and the MSCpep is 6.25 µg/mL. Further, in data set [2], the Hemolysis was 0.9% and 1%. Besides, in data set [3], the MSCery stood at 12.5 µg/mL; the “MIC of the peptide (MICpep)” value worked out at 100 µg/mL; the “MSCpeptide, minimum synergistic concentration” value was 12.5 µg/mL.
